Tests used:
[1] = Reaction with the IsoLG analog 4-oxopentanal; assay type: physicochemical; conditions: % of 2HOBA itself
Excerpt: In order to confirm the IsoLG scavenging properties of mito2HOBA, the present inventors studied its reaction with the IsoLG analog 4-oxopentanal as the present inventors described previously. Mito2HOBA was highly reactive with 4-oxopentanal with a reaction rate constant that was about 50% of 2HOBA itself (Supplemental FIG. 1S). […] The overall rate of IsoLG scavenging in physiological conditions depends both on the rate constant and the local concentration of the scavenger (V=k*[mito2HOBA]*[IsoLG]). […] This will result in low level of mito2HOBA in cytoplasm but high mitochondrial accumulation leading to specific scavenging of IsoLG in mitochondria (FIG. 3).

[2] = system: LPS-injected C57BL/6J mice; experiment: Survival in LPS model of sepsis; assay type: in vivo, mouse
Excerpt: All experimental procedures were approved by Vanderbilt and Mercer Institutional Animal Care and Use Committees. The use of LPS is well-established model of bacterial sepsis in rodents (1-3). The concentrations of LPS that can be used to induce sepsis in mice depend on many factors (source of LPS, age/size, and strains of animals, desired time of response, target of interest, etc.) and may vary between different manufactures. To test the protective properties of mito2HOBA, the present inventors used LPS from E. coli O111:B4 (Sigma L8274). […] The same lot of LPS was used throughout entire study.

[3] = system: SOD2 acetylation in human arterioles; experiment: SOD2 acetylation in human arterioles treated ex vivo (Western blot); assay type: cell-based; conditions: arterioles from hypertensive subjects, 0.5 μM, 24 hours, DMEM
Description: FIGS. 8A-D show Western blots of mitochondrial isoLGs (A) in human arterioles from normotensive and hypertensive subjects (n=5), (B) development of mitochondria-targeted isoLG scavenger mito2HOBA and (C, D) SOD2 acetylation in human arterioles isolated from normotensive and hypertensive subjects and treated ex vivo with mito2HOBA (0.5 μM, 24 hours, DMEM). Data were normalized by Complex I levels (Sham is 100%). Data are mean±SEM. *P<0.01 vs Normotensive Sham, **P<0.01 vs Hypertensive (n=5).
Arterioles (100 to 200-μm diameter) were harvested from human mediastinal fat obtained from patients during cardiac surgery enrolled in the Risk of Oxygen during Cardiac Surgery (ROCS) randomized clinical trial with essential hypertension (BP>140/90 mmHg) and normotensive subjects as previously described for Western blot analysis of SOD2 and SOD2 acetylation. Full informed consent was obtained for all tissue samples.
Hypertension is associated with inactivation of mitochondrial deacetylase Sirt3 and hyperacetylation of mitochondrial superoxide dismutase (SOD2). To study the potential role of mitochondrial isoLGs in Sirt3 inactivation, we developed the mitochondria-targeted isoLG scavenger mito2HOBA (FIG. 8B). Mito2HOBA selectively accumulates in the mitochondria due to its lipophilic cation triphenylphosphonium. […]

[4] = system: mitochondrial isoLG-Lysyl-Lactam protein adducts; experiment: isoLG-Lysyl-Lactam adducts in kidney mitochondria by LC/MS/MS; assay type: in vivo, mouse; conditions: Ang II-infused mice, mito2HOBA 0.1 g/L
Excerpt: FIGS. 10A-D show the effect of mito2HOBA on angiotensin II-induced hypertension and accumulation of mitochondrial isoLGs protein adducts. (A) Blood pressure tail-cuff measurements in male Sham or angiotensin II-infused mice supplied with mito2HOBA in drinking water (0.1 g/L) or equimolar amount of untargeted analog 2HOBA (0.17 mmol/L). (B) Telemetry studies of blood pressure in angiotensin II-infused mice supplied with mito2HOBA or plain water as a vehicle. (C) Representative LC/MS/MS chromatograms of isoLG-Lysyl-Lactam adduct; (D) isoLG-Lys-Lactam levels in kidney mitochondria isolated from Sham or angiotensin II-infused mice supplied with mito2HOBA. Results are mean±SEM. *P<0.01 vs Sham, **P<0.01 vs Ang II (n=8).
C57B1/6J mice were sacrificed by carbon dioxide and kidneys removed, cleaned from fat tissue and placed in the ice-slurry cold isolation medium. […] Mitochondrial protein concentration was measured by Bradford method.
IsoLG-Lysyl-Lactam adducts were measured in mitochondria isolated from the kidneys of sham or angiotensin II-infused mice using Mass Spectrometry. […] A [^13C6] internal standard was added and the isoLG-lysyl adducts were purified by solid phase extraction and HPLC before being quantified by Liquid Chromatography-tandem Mass Spectrometry assay (LC/ESI/MS/MS) using isotopic dilution as described previously.

mouse aortic rings = experiment: Vasodilatation study of aortic rings (endothelial-dependent relaxation); assay type: in vivo; conditions: Ang II plus mito2HOBA
Description: FIGS. 12A-D show the effect of mito2HOBA supplementation on mitochondrial superoxide (A), vascular superoxide (B), endothelial nitric oxide (C) and endothelial-dependent relaxation (D) in angiotensin II-infused mice. Mitochondrial and vascular O2⋅ was measured by mitochondria-targeted superoxide probe mitoSOX (1 μM) or untargeted superoxide probe DHE (50 μM) using HPLC.46 Endothelial nitric oxide was analyzed by NO spin trap Fe(DETC)2 and ESR.47 C57B1/6J mice were infused with Ang II and mito2HOBA was provided in the drinking water (0.1 g/L). […] Results are mean±SEM. *P<0.01 vs Sham, **P<0.01 vs Ang II (n=6).
Isometric tension studies were performed on 2 mm mouse aortic rings dissected free of perivascular fat from C57B/6J mice. Studies were performed in a horizontal wire myograph (DMT, Aarhus, Denmark, models 610 M and 620 M) containing physiological salt solution with the composition of 130 mM NaCl, 4.7 mM KCl 1.2 mM MgSO4, 1.2 mM KH2PO4, 15 mM NaHCO3, 5.5 mM glucose, and 1.6 mM CaCl2. The isometric tone of each vessel was recorded using LabChart Pro v7.3.7 (AD Instruments, Australia). […] Once the vessels reach a steady state contraction, increasing concentrations of acetylcholine were administered, and the response to each concentration of drug was recorded.

complex I/complex II = conditions: kidney mitochondria after LPS treatment, mito2HOBA supplementation
Description: Three months old C57BL/6J mice (25-28 g) were supplemented with mito2HOBA (drinking water, 0.1 g/L) for 72 hours prior to LPS injection (25 μg/g). Complex I/Complex II activity ratio is expressed as a % compared to Control (100%). […] Data are mean±STD *P<0.01 vs LPS (n=6), *P<0.01 vs LPS (n=10).
Forty C57BL/6J 3-month old mice were equally divided in four groups: Sham (Control), LPS-injected mice (LPS), mice supplemented with mito2HOBA (0.1 g/Liter) in the drinking water (mito2HOBA), and LPS-injected mice pretreated with mito2HOBA in the drinking water (LPS+mito2HOBA). […]
Mitochondrial complex I and complex II activities were evaluated after 24 hours of LPS injection as described above. […]
Respiration rates were measured using Fluorescence Lifetime Micro Oxygen Monitoring System (Instech Laboratories, Inc.). […] OXPHOS specific enzyme activities in submitochondrial particles (SMP) were measured using a Varian Cary 300 Bio UV/Vis spectrophotometer with temperature controlling cell holder. […] Complex I activity was monitored in triplicate samples as the reduction of 10 μM decylubiquinone at 272 nm by 15 μg of mitochondrial protein with 40 μM NADH. […] Complex II activity was measured by monitoring the absorbance at 600 nm during the oxidation of 50 μM DCPIP as artificial electron acceptor by 65 μM ubiquinone in presence of 2 mM KCN and 2 μg/ml rotenone and antimycin A.

NCc1ccc(OCCCC[P+](c2ccccc2)(c2ccccc2)c2ccccc2)cc1O [mito2HOBA]
reaction rate constant with 4-oxopentanal relative to 2HOBA [1]: about 50%
increase of animal survival ([2]; 96 hours post-injection of LPS 25 μg/g, mito2HOBA 0.1 g/L drinking water): 3 fold
reduction of animal immediate and extended mortality ([2]; LPS model of sepsis, mito2HOBA supplementation): 3 fold
SOD2 acetylation [3]: significantly reduced
isoLG-Lysyl-Lactam adducts formation in kidney mitochondria [4]: abolished
endothelial-dependent relaxation (mouse aortic rings): preserved
complex I/complex II activity ratio (complex I/complex II): completely preserved

— US12564580B2, “Mitochondria-targeted isoketal/isolevuglandin scavengers and uses thereof” (Vanderbilt University, priority 2020, dated 2026)
